Data from patent publication US4061862A, “Derivatives of 7-(cyclized)phenylglycyl-3-triazolo-thio methyl cephalosporin” (priority 1976, dated 1977).

Legend:
[1] = Bio-assay (mcg./mg.)
Protocol: 7-[D-α-amino-α-(p-hydroxyphenyl)acetamido]-3-(1,2,3-triazol-5-ylthiomethyl)-3-cephem-4-carboxylic acid methanol solvate (15 g.) was slurried in 60 ml. of water. The pH was raised to 6.5 by addition of 4N NaOH and the mixture was passed through a 200 mesh screen. The reaction mixture was slurried at room temperature for 2 hours, the pH being maintained at 6.5 during this period. The crystals were removed by filtration, washed with 20 ml. of water and air dried at 37° C. for 24 hours to give 11.5 g. of title crystalline product. Bio assay = 924 mcg./mg. (average % H2 O, K.F. = 5.26).
7-[D-α-amino-α-(p-hydroxyphenyl)acetamido]-3-(1,2,3-triazol-5-ylthiomethyl)-3-cephem-4-carboxylic acid methanol solvate (200 mesh; 10.0 g.) substantially free of propylene glycol is slurried in 30-40 ml. of deionized water at ambient room temperature (20°-25° C.) to give a pH 3-4 aqueous suspension. NaOH (40%) is slowly added with rapid stirring to bring the pH to 6.3-6.7. The mixture is slurried at pH 6.3-6.7 for 2 hours. The crystals are removed by filtration, washed with water and air dried at room temperature for 24 hours to give a 75-80% weight yield of 950-1000 mcg./mg. crystals of 7-[D-α-amino-α-(p-hydroxyphenyl)acetamido]-3-(1,2,3-triazol-5-ylthiomethyl)-3-cephem-4-carboxylic acid dihydrate. […] H2 O, K.F. = 6.56.

[2] = Loss of bioactivity on storage at elevated temperatures; assay type: physicochemical
Protocol: h. Loss of bioactivity on storage at elevated temperatures: 100° C., 24 hours = <6%; 48 hours = <12%; 56° C., 1 month = <10%.

Row | degraded at 720 h ([2]; 56° C., 1 month) [%] | degraded at 24 h ([2]; 100° C., 24 hours) [%] | degraded at 48 h ([2]; 100° C., 48 hours) [%] | SMILES | Bio-assay [1] [µg/mg]
1 |  |  |  | N[C@@H](C(=O)NC1C(=O)N2C(C(=O)O)=C(CSc3cnn[nH]3)CS[C@H]12)c1ccc(O)cc1.O.O (stereo partly drawn) [7-[D-α-amino-α-(p-hydroxyphenyl)acetamido]-3-(1,2,3-triazol-5-ylthiomethyl)-3-cephem-4-carboxylic acid dihydrate] | 950 to 1000
2 |  |  |  | NC(C(=O)NC1C(=O)N2C(C(=O)O)=C(CSc3c[nH]nn3)CSC12)c1ccc(O)cc1 [7-[D-α-amino-α-(p-hydroxyphenyl)acetamido]-3-(1,2,3-triazol-5-ylthiomethyl)-3-cephem-4-carboxylic acid methanol solvate] | 850 to 900
3 | < 10 | < 6 | < 12 | NC(C(=O)NC1C(=O)N2C(C(=O)O)=C(CSc3c[nH]nn3)CSC12)c1ccc(O)cc1 [7-[D-α-amino-α-(p-hydroxyphenyl)acetamido]-3-(1,2,3-triazol-5-ylthiomethyl)-3-cephem-4-carboxylic acid propylene glycol solvate] | 
